Results published in PubChem BioAssay (NCI).
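Grown in 96-well plates, cells were treated for 48 hours with each compound at five concentrations. Insufficient inhibition: endpoint recorded as highest concentration tested. GI50 is the concentration that inhibits growth by half. TGI: concentration producing complete growth inhibition.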

Assays:
Assay in all cases: DTP human tumour cell line panel, 48 h
NCI-H226 lung = tested on: NCI-H226 lung
SF-295 CNS = tested on: SF-295 CNS
K-562 leukemia = tested on: K-562 leukemia
CCRF-CEM leukemia = tested on: CCRF-CEM leukemia
SW-620 colon = tested on: SW-620 colon
M14 melanoma = tested on: M14 melanoma
OVCAR-3 ovarian = tested on: OVCAR-3 ovarian
OVCAR-5 ovarian = tested on: OVCAR-5 ovarian
U251 CNS = tested on: U251 CNS
MDA-MB-231 breast = tested on: MDA-MB-231 breast
SNB-19 CNS = tested on: SNB-19 CNS
PC-3 prostate = tested on: PC-3 prostate
NCI-H522 lung = tested on: NCI-H522 lung
HL-60(TB) leukemia = tested on: HL-60(TB) leukemia
HT29 colon = tested on: HT29 colon
ACHN renal = tested on: ACHN renal
SK-OV-3 ovarian = tested on: SK-OV-3 ovarian
RPMI-8226 leukemia = tested on: RPMI-8226 leukemia
RXF 393 renal = tested on: RXF 393 renal
HOP-92 NSCLC = tested on: HOP-92 NSCLC
MDA-MB-435 = tested on: MDA-MB-435
NCI/ADR-RES ovarian = tested on: NCI/ADR-RES ovarian
EKVX NSCLC = tested on: EKVX NSCLC
T-47D breast = tested on: T-47D breast
UACC-62 melanoma = tested on: UACC-62 melanoma
DU-145 prostate = tested on: DU-145 prostate
NCI-H460 lung = tested on: NCI-H460 lung
TK-10 renal = tested on: TK-10 renal
SK-MEL-2 melanoma = tested on: SK-MEL-2 melanoma
UO-31 renal = tested on: UO-31 renal
HCT-15 colon = tested on: HCT-15 colon
LOX IMVI melanoma = tested on: LOX IMVI melanoma
BT-549 breast = tested on: BT-549 breast
NCI-H23 lung = tested on: NCI-H23 lung
HOP-62 NSCLC = tested on: HOP-62 NSCLC
A498 renal = tested on: A498 renal
UACC-257 melanoma = tested on: UACC-257 melanoma
SK-MEL-5 melanoma = tested on: SK-MEL-5 melanoma
MOLT-4 leukemia = tested on: MOLT-4 leukemia
HCC-2998 colon = tested on: HCC-2998 colon
786-0 renal = tested on: 786-0 renal
MALME-3M melanoma = tested on: MALME-3M melanoma
SN12C renal = tested on: SN12C renal
KM12 colon = tested on: KM12 colon
COLO 205 colon = tested on: COLO 205 colon
SF-539 CNS = tested on: SF-539 CNS
MCF7 breast = tested on: MCF7 breast
A549 NSCLC = tested on: A549 NSCLC
HCT-116 colon = tested on: HCT-116 colon
SNB-75 CNS = tested on: SNB-75 CNS
SF-268 CNS = tested on: SF-268 CNS
HS 578T breast = tested on: HS 578T breast
IGROV1 ovarian = tested on: IGROV1 ovarian
OVCAR-4 ovarian = tested on: OVCAR-4 ovarian
SR leukemia = tested on: SR leukemia
OVCAR-8 ovarian = tested on: OVCAR-8 ovarian
SK-MEL-28 melanoma = tested on: SK-MEL-28 melanoma

O=C(Cn1c2ccccc2c2ccncc21)N/N=C\c1ccc2ccccc2c1
GI50 (NCI-H226 lung): 21.9 µM | TGI (NCI-H226 lung): 65.2 µM | GI50 (SF-295 CNS): 14.8 µM | TGI (SF-295 CNS): 34.6 µM | GI50 (K-562 leukemia): 24.7 µM | TGI (K-562 leukemia): > 100 µM | GI50 (CCRF-CEM leukemia): 45.1 µM | TGI (CCRF-CEM leukemia): > 100 µM | GI50 (SW-620 colon): 12.7 µM | TGI (SW-620 colon): > 100 µM | GI50 (M14 melanoma): 16.5 µM | TGI (M14 melanoma): 50.2 µM | GI50 (OVCAR-3 ovarian): 12.2 µM | TGI (OVCAR-3 ovarian): 36.5 µM | GI50 (OVCAR-5 ovarian): 36.5 µM | TGI (OVCAR-5 ovarian): > 100 µM | GI50 (U251 CNS): 14.5 µM | TGI (U251 CNS): 29.5 µM | GI50 (MDA-MB-231 breast): 14.5 µM | TGI (MDA-MB-231 breast): 32.9 µM | GI50 (SNB-19 CNS): 17.7 µM | TGI (SNB-19 CNS): 42.4 µM | GI50 (PC-3 prostate): 19 µM | TGI (PC-3 prostate): > 100 µM | GI50 (NCI-H522 lung): 19.6 µM | TGI (NCI-H522 lung): 51.5 µM | GI50 (HL-60(TB) leukemia): 29 µM | TGI (HL-60(TB) leukemia): > 100 µM | GI50 (HT29 colon): 21.7 µM | TGI (HT29 colon): 50.3 µM | GI50 (ACHN renal): 19.3 µM | TGI (ACHN renal): 48.5 µM | GI50 (SK-OV-3 ovarian): 18.2 µM | TGI (SK-OV-3 ovarian): 39.4 µM | GI50 (RPMI-8226 leukemia): 7.88 µM | TGI (RPMI-8226 leukemia): > 100 µM | GI50 (RXF 393 renal): 19 µM | TGI (RXF 393 renal): 54.4 µM | GI50 (HOP-92 NSCLC): 12.4 µM | TGI (HOP-92 NSCLC): 36.7 µM | GI50 (MDA-MB-435): 17.1 µM | TGI (MDA-MB-435): 63.3 µM | GI50 (NCI/ADR-RES ovarian): 15.8 µM | TGI (NCI/ADR-RES ovarian): > 100 µM | GI50 (EKVX NSCLC): 24.8 µM | TGI (EKVX NSCLC): > 100 µM | GI50 (T-47D breast): 25.2 µM | TGI (T-47D breast): > 100 µM | GI50 (UACC-62 melanoma): 18 µM | TGI (UACC-62 melanoma): 42.9 µM | GI50 (DU-145 prostate): 23.9 µM | TGI (DU-145 prostate): > 100 µM | GI50 (NCI-H460 lung): 13.9 µM | TGI (NCI-H460 lung): 39.9 µM | GI50 (TK-10 renal): 27.3 µM | TGI (TK-10 renal): 54.7 µM | GI50 (SK-MEL-2 melanoma): 19.2 µM | TGI (SK-MEL-2 melanoma): 42 µM | GI50 (UO-31 renal): 13.3 µM | TGI (UO-31 renal): 45.6 µM | GI50 (HCT-15 colon): 14.7 µM | TGI (HCT-15 colon): > 100 µM | GI50 (LOX IMVI melanoma): 28.6 µM | TGI (LOX IMVI melanoma): > 100 µM | GI50 (BT-549 breast): 15.6 µM | TGI (BT-549 breast): 36.5 µM | GI50 (NCI-H23 lung): 17.6 µM | TGI (NCI-H23 lung): 52.6 µM | GI50 (HOP-62 NSCLC): 17.3 µM | TGI (HOP-62 NSCLC): 39.3 µM | GI50 (A498 renal): 27.5 µM | TGI (A498 renal): 80.8 µM | GI50 (UACC-257 melanoma): 42.1 µM | TGI (UACC-257 melanoma): > 100 µM | GI50 (SK-MEL-5 melanoma): 23 µM | TGI (SK-MEL-5 melanoma): > 100 µM | GI50 (MOLT-4 leukemia): 16.7 µM | TGI (MOLT-4 leukemia): > 100 µM | GI50 (HCC-2998 colon): 35.9 µM | TGI (HCC-2998 colon): > 100 µM | GI50 (786-0 renal): 13.8 µM | TGI (786-0 renal): 30 µM | GI50 (MALME-3M melanoma): 11.4 µM | TGI (MALME-3M melanoma): 45.6 µM | GI50 (SN12C renal): 14.7 µM | TGI (SN12C renal): 46.6 µM | GI50 (KM12 colon): 29.6 µM | TGI (KM12 colon): > 100 µM | GI50 (COLO 205 colon): 25.8 µM | TGI (COLO 205 colon): > 100 µM | GI50 (SF-539 CNS): 13.6 µM | TGI (SF-539 CNS): 28.7 µM | GI50 (MCF7 breast): 14.3 µM | TGI (MCF7 breast): > 100 µM | GI50 (A549 NSCLC): 20.9 µM | TGI (A549 NSCLC): 57.1 µM | GI50 (HCT-116 colon): 3.51 µM | TGI (HCT-116 colon): 15 µM | GI50 (SNB-75 CNS): 22.2 µM | TGI (SNB-75 CNS): 61.6 µM | GI50 (SF-268 CNS): 18.7 µM | TGI (SF-268 CNS): 91.6 µM | GI50 (HS 578T breast): 23.5 µM | TGI (HS 578T breast): 79.2 µM | GI50 (IGROV1 ovarian): 13 µM | TGI (IGROV1 ovarian): 38.3 µM | GI50 (OVCAR-4 ovarian): 15.4 µM | TGI (OVCAR-4 ovarian): 80.8 µM | GI50 (SR leukemia): 6.39 µM | TGI (SR leukemia): > 100 µM | GI50 (OVCAR-8 ovarian): 27.8 µM | TGI (OVCAR-8 ovarian): > 100 µM | GI50 (SK-MEL-28 melanoma): 19.2 µM | TGI (SK-MEL-28 melanoma): 79.7 µM
